The values below are quoted from earlier work in PubChem BioAssay AID1259409 (Chemical Carcinogenesis Research Information System (CCRIS), 2018).

The structures appear in SMILES notation.

The series concerns rodent chemically induced tumor inhibition, incidence and multiplicity. In words: CCRIS tumor inhibitor studies. To be noted: Route [Inhibitor]: ORAL, Species: RAT, Promoter: NONE USED.

For the compound `O=P(O)(O)OC1C(OP(=O)(O)O)C(OP(=O)(O)O)C(OP(=O)(O)O)C(OP(=O)(O)O)C1OP(=O)(O)O` (stereo unspecified), the “tumour outcome (control, treated, inhibition, significance)” value was 5/15 (33%), 2/15 (13%), 61%, not significant (Carcinogen: 7,12-DIMETHYLBENZ[A]ANTHRACENE, 57-97-6, Dose [Inhibitor]: 0, 2% IN DIET FOR 35 WK BEGINNING POST CARCINOGEN DOSE (STUDY DURATION: 36 WK), Strain/Sex: SPRAGUE-DAWLEY/FEMALE, Target Tissue: Type of Lesion: EAR DUCT: TUMOR, Dose [Carcinogen]: 50 MG/KG BW IN CORN OIL ONCE); 14/15 (93%), 15/15 (100%), -8%, not significant (Carcinogen: 7,12-DIMETHYLBENZ[A]ANTHRACENE, 57-97-6, Dose [Inhibitor]: 0, 2% IN DIET FOR 35 WK BEGINNING POST CARCINOGEN DOSE (STUDY DURATION: 36 WK), Strain/Sex: SPRAGUE-DAWLEY/FEMALE, Target Tissue: Type of Lesion: MAMMARY GLAND: ADENOCARCINOMA OR FIBROADENOMA, Dose [Carcinogen]: 50 MG/KG BW IN CORN OIL ONCE); 7/10 (70%), 17/21 (81%), -16%, not calculated (Carcinogen: 7,12-DIMETHYLBENZ[A]ANTHRACENE, 57-97-6, Dose [Inhibitor]: 0, 15 MILLIMOLAR IN DRINKING WATER BEGINNING 1 WK PRIOR TO CARCINOGEN DOSE AND CONTINUING FOR 16 WK (STUDY DURATION: 16, Strain/Sex: SPRAGUE-DAWLEY/FEMALE, Target Tissue: Type of Lesion: MAMMARY GLAND: CARCINOMA, Dose [Carcinogen]: 20 MG IN 1 ML SESAME OIL ONCE); 37/40 (93%), 27/38 (71%), 24%, p<0.05 (Carcinogen: 7,12-DIMETHYLBENZ[A]ANTHRACENE, 57-97-6, Dose [Inhibitor]: 0, 15 MILLIMOLAR IN DRINKING WATER FOR 47 WK BEGINNING 2 WK PRIOR TO CARCINOGEN DOSE (STUDY DURATION: 47 WK), Strain/Sex: SPRAGUE-DAWLEY/FEMALE, Target Tissue: Type of Lesion: MAMMARY GLAND: TUMOR, Dose [Carcinogen]: 5 MG IN 1 ML CORN OIL ONCE); 65%, 30%, 54%, p<0.05 (Carcinogen: AZOXYMETHANE, 25843-45-2, Dose [Inhibitor]: 0, 2% IN A HIGH FAT LOW FIBER DIET FOR DURATION OF STUDY BEGINNING 3 WK PRIOR TO CARCINOGEN TREATMENT (STUDY DURATION: 3, Strain/Sex: SPRAGUE-DAWLEY/FEMALE, Target Tissue: Type of Lesion: COLON: TUMOR, Dose [Carcinogen]: 15 MG/KG BW 1/WK FOR 2 WK); 10/12 (83%), 3/12 (25%), 70%, p=0.0045 (Carcinogen: AZOXYMETHANE, 25843-45-2, Dose [Inhibitor]: 0, 2% IN DRINKING WATER BEGINNING 1 WK POST CARCINOGEN DOSE AND CONTINUING FOR DURATION OF STUDY (STUDY DURATION: 36 WK), Strain/Sex: F344/MALE, Target Tissue: Type of Lesion: COLON: CARCINOMA, Dose [Carcinogen]: 30 MG/KG ONCE AT 6 WK OF AGE). Also, the “tumour outcome (control, treated, inhibition, significance)” value (Carcinogen: AZOXYMETHANE, 25843-45-2, Dose [Inhibitor]: 1% IN DRINKING WATER BEGINNING 1 WK PRIOR TO FIRST CARCINOGEN DOSE (STUDY DURATION: 9 MO), Strain/Sex: F344/MALE, Target Tissue: Type of Lesion: LARGE INTESTINE: CARCINOMA, Dose [Carcinogen]: 8 MG/KG BW INJECTED IN HIND LEG 1/WK FOR 12 WK) is 100%, 100%, 0%, not significant; the “tumour outcome (control, treated, inhibition, significance)” value (Carcinogen: AZOXYMETHANE, 25843-45-2, Dose [Inhibitor]: 2% IN DRINKING WATER BEGINNING 2 WK POST LAST CARCINOGEN DOSE (STUDY DURATION: 10 MO), Strain/Sex: F344/MALE, Target Tissue: Type of Lesion: COLON: TUMOR, Dose [Carcinogen]: 8 MG/KG BW INJECTED IN HIND LEG 1/WK FOR 4 WK) is 43%, 10%, 77%, not calculated; the “tumour outcome (control, treated, inhibition, significance)” value (Carcinogen: N-METHYL-N-NITROSOUREA, 684-93-5, AZOXYMETHANE, 25843-45-2, Carcinogen: N-METHYL-N-NITROSOUREA, 684-93-5, AZOXYMETHANE, 25843-45-2, Dose [Inhibitor]: 0, 2% IN A HIGH FAT LOW FIBER DIET FOR DURATION OF STUDY BEGINNING 2 WK PRIOR TO CARCINOGEN TREATMENT (STUDY DURATION: 3, Strain/Sex: SPRAGUE-DAWLEY/FEMALE, Target Tissue: Type of Lesion: COLON: TUMOR, Dose [Carcinogen]: 50 MG/KG BW MNU ONCE FOLLOWED BY 15 MG/KG BW AOM 1/WK FOR 2 WK) is recorded as 70%, 30%, 57%, p<0.05; the “tumour outcome (control, treated, inhibition, significance)” value (Carcinogen: N-METHYL-N-NITROSOUREA, 684-93-5, AZOXYMETHANE, 25843-45-2, Carcinogen: N-METHYL-N-NITROSOUREA, 684-93-5, AZOXYMETHANE, 25843-45-2, Dose [Inhibitor]: 0, 2% IN A HIGH FAT LOW FIBER DIET FOR DURATION OF STUDY BEGINNING 2 WK PRIOR TO CARCINOGEN TREATMENT (STUDY DURATION: 3, Strain/Sex: SPRAGUE-DAWLEY/FEMALE, Target Tissue: Type of Lesion: MAMMARY GLAND: CARCINOMA, Dose [Carcinogen]: 50 MG/KG BW MNU ONCE FOLLOWED BY 15 MG/KG BW AOM 1/WK FOR 2 WK) is reported as 100%, 50%, 50%, p<0.05; the “tumour outcome (control, treated, inhibition, significance)” value (Carcinogen: N-METHYL-N-NITROSOUREA, 684-93-5, Dose [Inhibitor]: 0, 2% IN HIGH FAT LOW FIBER DIET FOR DURATION OF STUDY BEGINNING 2 WK PRIOR TO CARCINOGEN TREATMENT (STUDY DURATION: 32, Strain/Sex: SPRAGUE-DAWLEY/FEMALE, Target Tissue: Type of Lesion: MAMMARY GLAND: CARCINOMA, Dose [Carcinogen]: 50 MG/KG BW ONCE) was 95%, 40%, 58%, p<0.05.
